The text below walks through data of patent US12005126B2, “Compositions for oral administration of pentosan polysulfate in form of nanoparticles with improved intestinal absorption” (NEXTRARESEARCH S.R.L., priority 2018, dated 2024).

The nature of the data set: In-vivo pharmacokinetics study in rats after oral administration. The settings on record: 1 mL, PPS conc. 4.64 mg/mL. On the procedure:
The bioavailability of PPS from the formulations of this invention can be evaluated in rats upon oral administration by gavage of the powder dispersion in comparison to the solution of non-formulated PPS
Plasma concentration versus time curve were evaluated in an in-vivo pharmacokinetics study carried out in rats after oral administration of 1 mL of a PPS aqueous solution having a concentration 4.64 mg/mL (Form I) or 1 mL of the PPS/chitosan nanosuspension (PPS conc. 4.64 mg/mL). In the nanosuspension the ratio between the volume of solution of PPS (6.5 mg/mL) and of solution of chitosan (6.5 mg/mL) used for the production of the nanoparticles was 5:2 (v/v).

With “Pentosan Polysulfate sodium [PPS solution]”, the “Area under the curve” value was found to be 1306 µg·min/mL and the tmax worked out at 1 h.
